Consider seven compounds from patent US20080119412A1, “Polypeptides for Modulating Binding of Trp Channel Proteins and Trp- Associated Proteins” (NoNO Inc., priority 2003, published 2008).

In general, EC50 refers to the concentration at which the effect is half-maximal. Read a high EC50 as weaker potency.

Residues, ends and D or L forms follow the SMILES beside them. *: point of attachment. Biotin = O=C1N[C@H]2[C@H](CS[C@H]2CCCCC(=O)*)N1

Test [1] addresses T1, ZO-1 d2 (Homo sapiens, UniProt Q07157, DEL264-264).
T1 construct: made in house; host or cells: E. coli (DH5alpha, BL21 or JM109)
T1 sequence (Q07157 with tags, fused parts or gaps DEL264-264): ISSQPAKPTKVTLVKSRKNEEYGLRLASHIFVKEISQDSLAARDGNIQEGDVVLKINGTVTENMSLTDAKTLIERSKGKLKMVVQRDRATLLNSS
The test is described as follows: G assay, peptide binding to GST-PDZ fusion (Table 11). Particulars: Table 11, titrations or binding assays.
Procedure: (§6) The binding of labeled PL peptide (e.g., as listed in TABLE 2 and TABLE 4) to this surface is then measured. In a preferred embodiment, the assay is carried out as follows:
(§7) (1) A PDZ-domain polypeptide is bound to a surface, e.g. a protein binding surface. In a preferred embodiment, a GST/PDZ fusion protein containing one or more PDZ domains is bound to a polystyrene 96-well plate. […] In one embodiment, the GST/PDZ fusion protein is bound via an anti-GST antibody that is coated onto the 96-well plate. Adequate binding to the plate can be achieved when:
(§8) (2) Biotinylated PL peptides are allowed to react with the surface by addition of 50 μl per well of 20 μM solution of the biotinylated peptide in PBS/BSA for 10 minutes at 4° C., followed by an additional 20 minute incubation at 25° C. The plate is washed 3 times with ice cold PBS.
(§9) (3) The binding of the biotinylated peptide to the GST/PDZ fusion protein surface can be detected using a variety of methods and detectors known to one of skill in the art. In one embodiment, 100 μl per well of 0.5 μg/ml streptavidin-horseradish peroxidase (HRP) conjugate dissolved in BSA/PBS is added and allowed to react for 20 minutes at 4° C. The plate is then washed 5 times with 50 mM Tris pH 8.0 containing 0.2% Tween 20, and developed by addition of 100 μl per well of HRP-substrate solution (TMB, Dako) for 20 minutes at room temperature (RT). The reaction of the HRP and its substrate is terminated by addition of 100 μl per well of 1 M sulfuric acid, and the optical density (O.D.) of each well of the plate is read at 450 um.
(§10) (4) Specific binding of a PL peptide and a PDZ domain polypeptide is determined by comparing the signal from the well(s) in which the PL peptide and PDZ domain polypeptide are combined, with the background signal(s). […] Typically a specific or selective reaction will be at least twice background signal, more typically more than 5 times background, and most typically 10 or more times the background signal. […] Correspondingly, a statistical test (e.g. a T-test) comparing repeated measurements of the signal with -repeated measurements of the background will result in a p-value <0.05, more typically a p-value <0.01, and most typically a p-value <0.001 or less. As noted, in an embodiment of the G assay, the signal from binding of a given PL peptide to immobilized (surface bound) GST polypeptide alone is one suitable negative control (sometimes referred to as B1). Because all measurement are done in multiples (i.e. at least duplicate) the arithmetic mean (or, equivalently, average.) of several measurements is used in determining the binding, and the standard error of the mean is used in determining the probable error in the measurement of the binding. The standard error of the mean of N measurements equals the square root of the following: the sum of the squares of the difference between each measurement and the mean, divided by the product of (N) and (N−1). Thus, in one embodiment, specific binding of the PDZ protein to the platebound peptide is determined by comparing the mean signal (“mean S”) and standard error of the signal (“SE”) for a particular PL-PDZ combination with the mean B1.

Test [2] addresses T1, ZO-1 d2. The experiment in a line: G3 assay titration, GST-PDZ fusion / biotinylated peptide. The test is classed as binding. As to conditions: for ODmax (450 nm): Table 10, titration of peptides with ZO-1 d2. The method, then: (§1) The G3 assay is identical to the G0 assay with the following exceptions. The peptides are typically present at 0.1 μM rather than 20 μM. The peptides are also pre-incubated with the HRP-streptavidin prior to adding to the assay plate. In the G0 assay, free peptide is incubated with the PDZ proteins prior to the addition of the HRP-streptavidin. Thus, for the G0 assay one can lose signal if the bound peptide dissociates from the PDZ protein prior to the addition of the HRP-streptavidin. In the G3 modified assay the HRP-streptavidin/peptide complex is added to the plate in one step, thus increasing the likelihood that all the bound peptide will be bound to HRP-streptavidin. The G3 modified assay increases the chance of observing weak interactions.
(§2) This example describes assays to identify binding between TRPM7 and PDZ domains. GST-PDZ fusions are produced that each contain an entire PDZ domain (or multiple PDZ domains), the collection encompassing approximately 90% of all PDZ domains identified in the human genome. (See Table 5 and Section V (PDZ Proteins and PL Protein Interactions Disclosure). Biotinylated peptide corresponding to 11 residues of Tat coupled to the C-terminal 9 amino acids of TRPM7 ([…]; SEQ ID NO:258) is synthesized and purified by HPLC.
(§3) • Nunc MaxiSorp 96 well Immuno-plate, Nunc • PBS pH 7.4 (phosphate buffered saline, 8 g NaCl, 0.29 g KCl, 1.44 g Na2HPO4, 0.24 g KH2PO4, add H2O to 1 liter and pH 7.4; 0.2 μm filter) • Assay Buffer: 2% BSA in PBS (20 g of bovine serum albumin per liter PBS, fraction V, ICN Biomedicals, cat#IC15142983 • Goat anti-GST polyclonal Ab, stock 5 mg/ml, stored at 4° C., Amersham Pharmacia cat#27-4577-01 • Dilute 1:1000 in PBS, final concentration 5 μg/ml. • HRP-Streptavidin, 2.5 mg/2 ml stock stored at 4° C., Zymed cat#43-4323, dilute 1:2000 into Assay buffer, final concentration of […] • Wash Buffer, PBS • Biotinylated peptides (HPLC purified, stock solution stored in −20° C. freezer) • GST-PRISM proteins (stock stored at −80° C., after 1st thaw store in −10° C. freezer) • TMB (3,3′,5,5′, teramethylbensidine), tablets, Sigma cat.#T5525 • Per plate, dissolve 1 tablet in 1 ml DMSO, add 9 ml Citrate/Phosphate buffer pH 5.4 and 2 μL H2O2 • 0.1 M H2SO4, Sigma cat.#S1526 • 12-w multichannel pipettor & tips • 50 ml reagent reservoirs, Costar#4870 • 50, 15 ml polypropylene conical tubes • Costar Transtar 96 Costar #7605 • Transtar 96 Cartridge Costar #7610 • Molecular Devices microplate reader (450 & 650 nm filters) with SoftMax Pro software *When using reagents stored at or 4° C. or −20° C., remove & keep on ice
(§4) • 1. Coat plate with 100 μl of 5 μg/ml anti-GST, overnight at 4° C. • 2. Dump contents of plate & out tap dry on paper towels • 3. Block with 200 μl Assay Buffer for 2 hrs at room temperature • 4. Prepare proteins at 5 μg/ml in Assay Buffer • 5. Wash 3× with cold PBS (4° C.), avoiding letting the plates dry out • 6. Add proteins at 50 μl per well, incubate 1 to 2 hrs at 4° C. • 7. Prepare peptides to desired concentration in Assay Buffer • 8. Wash 3× with cold PBS (4° C.), avoiding letting the plates dry out • 9. Add HRP-Streptavidin/peptide complex [prepared by incubating for 20 minutes at room temperature HRP-Streptavidin (1:2000) with the desired biotin-peptide concentration for 20 minutes at room temperature] at 50 μl per well on ice • 10. Place at room temperature for exactly 30 minutes • 11. Promptly wash 5× with PBS at room temperature • 12. Add 100 μl/well TMB substrate (write time on plate) • 13. Incubate in dark at room temperature for a maximum of 30 minutes • 14. Read plate at 25 minutes (650 nm), optional • 15. Stop reaction with 100 μl of 0.18 M H2SO4, 30 minutes after adding TMB • Take last reading at 450 nm soon after stopping reaction
(§5) The G3 assay was performed using 0.1 μM peptide representing 11 amino acids of Tat fused to the final 9 amino acids of TRPM7 ([…]; SEQ ID NO:258). […]

Test [3] addresses T2, INADL d3 (Homo sapiens, UniProt Q8NI35).
T2 construct: made in house; host or cells: E. coli (DH5alpha, BL21 or JM109)
T2 sequence (Q8NI35 with tags, fused parts or gaps): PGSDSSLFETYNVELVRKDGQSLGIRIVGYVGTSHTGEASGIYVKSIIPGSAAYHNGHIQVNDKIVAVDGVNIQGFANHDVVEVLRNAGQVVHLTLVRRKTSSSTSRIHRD
The description is as above. The test is classed as binding. As to conditions: for ODmax (450 nm): Table 10, titration of peptides with INADL d3. The method, then: as §1, §2, §3, §4, §5

The target of test [4] is T2, INADL d3. The test is described as follows: G assay, peptide binding to GST-PDZ fusion (Table 11). As to conditions: Table 11, titrations or binding assays.
Procedure: as §6, §7, §8, §9, §10

Consider `CC[C@H](C)[C@H](NC(=O)[C@@H](NC(=O)[C@H](CCCNC(=N)N)NC(=O)[C@H](CC(=O)O)NC(=O)[C@H](CO)NC(=O)[C@H](CCCNC(=N)N)NC(=O)[C@H](C)NC(=O)[C@H](CCCNC(=N)N)NC(=O)[C@H](CCCNC(=N)N)NC(=O)[C@H](CCCNC(=N)N)NC(=O)[C@H](CCC(N)=O)NC(=O)[C@H](CCCNC(=N)N)NC(=O)[C@H](CCCNC(=N)N)NC(=O)[C@H](CCCCN)NC(=O)[C@H](CCCCN)NC(=O)[C@H](CCCNC(=N)N)NC(=O)CNC(=O)[C@H](Cc1ccc(O)cc1)NC(=O)CCCC[C@@H]1SC[C@@H]2NC(=O)N[C@@H]21)[C@@H](C)O)C(=O)N[C@@H](Cc1c[nH]c2ccccc12)C(=O)N[C@@H](C)C(=O)O` [Peptide 1829] (Biotin-YGRKKRRQRRRARSDRTIWA-OH; C-terminus assumed), for which the PDZ domain bound entry was “ZO-1 D2” on ZO-1 d2 [1] and “INADL D3” at INADL d3 [4]. The compound also yielded an EC50 at ZO-1 d2 [2] of 0.007 µM. Besides, the entries for the “ODmax (450 nm)” value at ZO-1 d2 [2] and at INADL d3 [3] were 2.90 and 1.40, respectively.

`CC[C@H](C)[C@H](NC(=O)[C@H](CCC(N)=O)NC(=O)[C@H](Cc1ccc(O)cc1)NC(=O)[C@H](CCCCN)NC(=O)[C@H](CCCNC(=N)N)NC(=O)[C@H](CC(=O)O)NC(=O)[C@@H](NC(=O)[C@H](CCCNC(=N)N)NC(=O)[C@H](CO)NC(=O)[C@H](CCCNC(=N)N)NC(=O)[C@H](CCCNC(=N)N)NC(=O)[C@H](CCCNC(=N)N)NC(=O)[C@H](CCC(N)=O)NC(=O)[C@H](CCCNC(=N)N)NC(=O)[C@H](CCCNC(=N)N)NC(=O)[C@H](CCCCN)NC(=O)[C@H](CCCCN)NC(=O)[C@H](CCCNC(=N)N)NC(=O)CNC(=O)[C@H](Cc1ccc(O)cc1)NC(=O)CCCC[C@@H]1SC[C@@H]2NC(=O)N[C@@H]21)[C@@H](C)O)C(=O)O` [Peptide 1839] (Biotin-YGRKKRRQRRRSRTDRKYQI-OH; C-terminus assumed): at ZO-1 d2 [2], the EC50 is under 0.02 µM and the “ODmax (450 nm)” value turned out to be 2.50. Further, on INADL d3 [3], the midpoint of the response, the EC50, lay at 0.13 µM and the “ODmax (450 nm)” value is 1.60. Besides, on INADL d3 [4], the PDZ domain bound entry is “INADL D3”.

As for `CC[C@H](C)[C@H](NC(=O)[C@H](CC(C)C)NC(=O)[C@H](CCCNC(=N)N)NC(=O)[C@H](CCCNC(=N)N)NC(=O)[C@H](CCC(=O)O)NC(=O)[C@H](CC(=O)O)NC(=O)[C@H](CCC(N)=O)NC(=O)[C@H](CCCNC(=N)N)NC(=O)[C@H](CCCNC(=N)N)NC(=O)[C@H](CCCNC(=N)N)NC(=O)[C@H](CCC(N)=O)NC(=O)[C@H](CCCNC(=N)N)NC(=O)[C@H](CCCNC(=N)N)NC(=O)[C@H](CCCCN)NC(=O)[C@H](CCCCN)NC(=O)[C@H](CCCNC(=N)N)NC(=O)CNC(=O)[C@H](Cc1ccc(O)cc1)NC(=O)CCCC[C@@H]1SC[C@@H]2NC(=O)N[C@@H]21)C(=O)N[C@H](C(=O)N[C@@H](CC(C)C)C(=O)O)C(C)C` [Peptide 1842] (Biotin-YGRKKRRQRRRQDERRLIVL-OH), the PDZ domain bound entry at ZO-1 d2 [1] was “ZO-1 D2”. Moreover, at ZO-1 d2 [2], the half-maximal effective concentration (EC50) stood at 0.035 µM and the “ODmax (450 nm)” value amounted to 2.30. In addition, at INADL d3 [3], the EC50 is under 1 µM and the “ODmax (450 nm)” value stood at 1.90.

With `CC(C)C[C@H](NC(=O)[C@H](CO)NC(=O)[C@@H](NC(=O)[C@H](CC(C)C)NC(=O)[C@H](CCCNC(=N)N)NC(=O)[C@H](CC(=O)O)NC(=O)CNC(=O)[C@H](CCCNC(=N)N)NC(=O)[C@H](C)NC(=O)[C@H](CCCNC(=N)N)NC(=O)[C@H](CCCNC(=N)N)NC(=O)[C@H](CCCNC(=N)N)NC(=O)[C@H](CCC(N)=O)NC(=O)[C@H](CCCNC(=N)N)NC(=O)[C@H](CCCNC(=N)N)NC(=O)[C@H](CCCCN)NC(=O)[C@H](CCCCN)NC(=O)[C@H](CCCNC(=N)N)NC(=O)CNC(=O)[C@H](Cc1ccc(O)cc1)NC(=O)CCCC[C@@H]1SC[C@@H]2NC(=O)N[C@@H]21)C(C)C)C(=O)O` [Peptide 1843] (Biotin-YGRKKRRQRRRARGDRLVSL-OH; C-terminus assumed), the PDZ domain bound entry at ZO-1 d2 [1] is reported as “ZO-1 D2”. On ZO-1 d2 [2], the EC50 is 0.017 µM and the “ODmax (450 nm)” value was determined as 2.20. In addition, at INADL d3 [3], the EC50 was under 2 µM and the “ODmax (450 nm)” value was found to be 1.20.

On to `CC[C@H](C)[C@H](NC(=O)[C@H](CCCNC(=N)N)NC(=O)[C@H](Cc1ccc(O)cc1)NC(=O)[C@H](CCCNC(=N)N)NC(=O)[C@H](CC(=O)O)NC(=O)CNC(=O)[C@H](CCCNC(=N)N)NC(=O)[C@H](C)NC(=O)[C@H](CCCNC(=N)N)NC(=O)[C@H](CCCNC(=N)N)NC(=O)[C@H](CCCNC(=N)N)NC(=O)[C@H](CCC(N)=O)NC(=O)[C@H](CCCNC(=N)N)NC(=O)[C@H](CCCNC(=N)N)NC(=O)[C@H](CCCCN)NC(=O)[C@H](CCCCN)NC(=O)[C@H](CCCNC(=N)N)NC(=O)CNC(=O)[C@H](Cc1ccc(O)cc1)NC(=O)CCCC[C@@H]1SC[C@@H]2NC(=O)N[C@@H]21)C(=O)N[C@H](C(=O)O)C(C)C` [Peptide 1845] (Biotin-YGRKKRRQRRRARGDRYRIV-OH), for which the EC50 at ZO-1 d2 [2] and at INADL d3 [3] was under 0.1 µM throughout.

On to `CC[C@H](C)[C@H](NC(=O)[C@@H](NC(=O)[C@H](CCCNC(=N)N)NC(=O)[C@H](CC(=O)O)NC(=O)CNC(=O)[C@H](CCCNC(=N)N)NC(=O)[C@H](C)NC(=O)[C@H](CCCNC(=N)N)NC(=O)[C@H](CCCNC(=N)N)NC(=O)[C@H](CCCNC(=N)N)NC(=O)[C@H](CCC(N)=O)NC(=O)[C@H](CCCNC(=N)N)NC(=O)[C@H](CCCNC(=N)N)NC(=O)[C@H](CCCCN)NC(=O)[C@H](CCCCN)NC(=O)[C@H](CCCNC(=N)N)NC(=O)CNC(=O)[C@H](Cc1ccc(O)cc1)NC(=O)CCCC[C@@H]1SC[C@@H]2NC(=O)N[C@@H]21)[C@@H](C)O)C(=O)N[C@H](C(=O)N[C@@H](Cc1ccc(O)cc1)C(=O)O)[C@@H](C)CC` [Peptide 1848] (Biotin-YGRKKRRQRRRARGDRTIIY-OH), for which the figures for the EC50 at ZO-1 d2 [2] and on INADL d3 [3] were under 0.02 µM and under 2 µM, respectively.

As to `CC(C)[C@H](NC(=O)[C@H](Cc1ccc(O)cc1)NC(=O)[C@H](Cc1ccc(O)cc1)NC(=O)[C@H](CCC(=O)O)NC(=O)[C@H](CCCCN)NC(=O)[C@H](CC(=O)O)NC(=O)[C@H](CCCCN)NC(=O)[C@H](CC(N)=O)NC(=O)[C@H](CCCCN)NC(=O)[C@H](CCCNC(=N)N)NC(=O)[C@H](CCCNC(=N)N)NC(=O)[C@H](CCCNC(=N)N)NC(=O)[C@H](CCC(N)=O)NC(=O)[C@H](CCCNC(=N)N)NC(=O)[C@H](CCCNC(=N)N)NC(=O)[C@H](CCCCN)NC(=O)[C@H](CCCCN)NC(=O)[C@H](CCCNC(=N)N)NC(=O)CNC(=O)[C@H](Cc1ccc(O)cc1)NC(=O)CCCC[C@@H]1SC[C@@H]2NC(=O)N[C@@H]21)C(=O)O` [Peptide 1852] (Biotin-YGRKKRRQRRRKNKDKEYYV-OH), the EC50 on ZO-1 d2 [2] and on INADL d3 [3] was under 0.02 µM each time.
